Assay results from the supplement of paper PMC10307832.

Legend:
Experiment in all cases: relative viability (nuclei count vs DMSO), 5 days (fraction); higher = more cells survive
Elesclomol + Lapatinib = compound: CN(NC(=O)CC(=O)NN(C)C(=S)c1ccccc1)C(=S)c1ccccc1 [Elesclomol] + CS(=O)(=O)CCNCc1ccc(-c2ccc3ncnc(Nc4ccc(OCc5cccc(F)c5)c(Cl)c4)c3c2)o1 [Lapatinib] (partner 2 µM)
Outline: (§1)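 Relative viability is defined as nuclei in treated wells over nuclei in vehicle wells. Duplicate plates were run and medians reported. Lung cancer cell lines in 1536-well plates were dosed by pin tool one day after seeding, with one drug or with a fixed anchor-drug dose plus five library-drug doses (not always all listed) in √10 steps, and nuclei were counted after 5 days.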

Elesclomol + Trametinib = compound: CN(NC(=O)CC(=O)NN(C)C(=S)c1ccccc1)C(=S)c1ccccc1 [Elesclomol] + CC(=O)Nc1cccc(-n2c(=O)n(C3CC3)c(=O)c3c(Nc4ccc(I)cc4F)n(C)c(=O)c(C)c32)c1 [Trametinib] (partner 0.02 µM)
Outline: as §1

Elesclomol + Foretinib = compound: CN(NC(=O)CC(=O)NN(C)C(=S)c1ccccc1)C(=S)c1ccccc1 [Elesclomol] + COc1cc2c(Oc3ccc(NC(=O)C4(C(=O)Nc5ccc(F)cc5)CC4)cc3F)ccnc2cc1OCCCN1CCOCC1 [Foretinib] (partner 0.25 µM)
Outline: as §1

Elesclomol + Dasatinib = compound: CN(NC(=O)CC(=O)NN(C)C(=S)c1ccccc1)C(=S)c1ccccc1 [Elesclomol] + Cc1nc(Nc2ncc(C(=O)Nc3c(C)cccc3Cl)s2)cc(N2CCN(CCO)CC2)n1 [Dasatinib] (partner 0.075 µM)
Outline: as §1

Elesclomol + Navitoclax = compound: CN(NC(=O)CC(=O)NN(C)C(=S)c1ccccc1)C(=S)c1ccccc1 [Elesclomol] + CC1(C)CCC(c2ccc(Cl)cc2)=C(CN2CCN(c3ccc(C(=O)NS(=O)(=O)c4ccc(N[C@H](CCN5CCOCC5)CSc5ccccc5)c(S(=O)(=O)C(F)(F)F)c4)cc3)CC2)C1 [Navitoclax] (partner 0.5 µM)
Outline: as §1

Cell Line	relative viability (Elesclomol + Lapatinib; first compound 0.003162 µM)	relative viability (Elesclomol + Lapatinib; first compound 0.01 µM)	relative viability (Elesclomol + Lapatinib; first compound 0.03162 µM)	relative viability (Elesclomol + Lapatinib; first compound 0.1 µM)	relative viability (Elesclomol + Trametinib; first compound 0.003162 µM)	relative viability (Elesclomol + Trametinib; first compound 0.01 µM)	relative viability (Elesclomol + Trametinib; first compound 0.03162 µM)	relative viability (Elesclomol + Trametinib; first compound 0.1 µM)	relative viability (Elesclomol + Foretinib; first compound 0.003162 µM)	relative viability (Elesclomol + Foretinib; first compound 0.01 µM)	relative viability (Elesclomol + Foretinib; first compound 0.03162 µM)	relative viability (Elesclomol + Foretinib; first compound 0.1 µM)	relative viability (Elesclomol + Dasatinib; first compound 0.003162 µM)	relative viability (Elesclomol + Dasatinib; first compound 0.01 µM)	relative viability (Elesclomol + Dasatinib; first compound 0.03162 µM)	relative viability (Elesclomol + Dasatinib; first compound 0.1 µM)	relative viability (Elesclomol + Navitoclax; first compound 0.003162 µM)	relative viability (Elesclomol + Navitoclax; first compound 0.01 µM)	relative viability (Elesclomol + Navitoclax; first compound 0.03162 µM)	relative viability (Elesclomol + Navitoclax; first compound 0.1 µM)
NCI-H1650	0.38	0.277	0.184	0.17	0.202	0.188	0.116	0.102	0.525	0.306	0.132	0.136	0.21	0.17	0.156	0.154	0.734	0.331	0.168	0.0893
NCI-H1651	0.715	0.415	0.112	0.0857	0.854	0.842	0.858	0.538	0.727	0.436	0.0766	0.0932	0.343	0.258	0.115	0.0916	0.971	0.525	0.137	0.0728
NCI-H1666	0.556	0.326	0.229	0.153	0.801	0.675	0.689	0.662	1.06	0.88	0.621	0.509	0.9	0.585	0.412	0.378	0.825	0.299	0.227	0.15
NCI-H1734	1.11	0.893	0.294	0.125	0.674	0.511	0.151	0.0873	0.882	0.679	0.221	0.126	0.473	0.421	0.144	0.113	0.852	0.841	0.636	0.0859
NCI-H1755	1.05	0.939	0.887	0.236	0.772	0.77	0.774	0.56	0.935	0.887	0.922	0.474	0.446	0.357	0.433	0.214	0.968	0.847	0.82	0.158
NCI-H1793	0.657	0.613	0.651	0.112	0.339	0.414	0.318	0.111	0.613	0.618	0.658	0.193	0.358	0.268	0.373	0.136	0.349	0.349	0.382	0.135
NCI-H1915	0.986		0.948	0.78	0.301	0.242	0.305	0.118	1.05		1.08	0.793	0.337		0.317	0.21	0.784		0.792	0.799
NCI-H1944	0.829	0.714	0.846	0.688	0.48	0.456	0.352	0.266	0.93	0.868	0.838	0.358	0.223	0.205	0.229	0.155	1.14	1.11	1.01	0.904
NCI-H1975	0.84	0.571	0.164	0.1	0.356	0.229	0.14	0.125	0.943	0.832	0.311	0.164	0.344	0.223	0.163	0.0599	1	1.1	0.209	0.12
NCI-H1993	0.753	0.809	0.697	0.563	0.544	0.576	0.495	0.339	0.772	0.671	0.553	0.533	0.577	0.508	0.494	0.453	0.934	1.19	0.63	0.508
NCI-H2009	0.841	0.178	0.136	0.107	0.283	0.259	0.15	0.0957	1.2	0.97	0.207	0.171	0.263	0.126	0.112	0.0747	1.17	0.567	0.277	0.11
NCI-H2023	0.384	0.266	0.0556	0.0486	0.469	0.149	0.0579	0.045	0.67	0.565	0.0376	0.051	0.421	0.117	0.0528	0.0413	0.99	0.455	0.111	0.102
NCI-H2085	0.761	0.521	0.397	0.376	0.608	0.434	0.207	0.174	1.09	0.658	0.462	0.271	0.242	0.235	0.273	0.235	1.22	0.725	0.657	0.312
NCI-H2087	0.895	0.519	0.58	0.569	0.204	0.149	0.153	0.0863	0.936	0.767	0.577	0.299	0.815	0.502	0.41	0.152	0.924	0.728	0.499	0.469
NCI-H2126	0.731	0.698	0.791	0.766	0.554	0.555	0.497	0.557	1.19	0.943	0.435	0.201	0.659	0.512	0.3	0.215	0.89	0.826	0.908	0.827
